Measurements from patent US10159678B2, “Methods to decrease susceptibility to asthmatic bronchoconstriction” (Cornell University, priority 2012, dated 2018).

Assays:
[1] = tested on: lung inflammation; test: Assessment of inflammation (BAL cells, lung histology, cytokine mRNA) after myriocin; assay type: in vivo, mice
Protocol: BAL was collected by intratracheal instillations of PBS (2×0.5 ml). Cell differentials were determined by Giemsa stain on cytospin preparations. Cell viability was determined by trypan blue exclusion. Expression of TNF-α, IL-6 and IL-1β in the lung was quantified by TaqMan RealTime RT-PCR. RNA was extracted using TRIzol (Invitrogen). […] RNA levels were quantified using the ΔΔCt method and normalized to expression of murine ribosomal 18s (4310893E, Applied Biosystems). For lung histology, lungs were inflated with 4% paraformaldehyde at 25 cm H2O and 5 μm paraffin sections were stained with hematoxylin and eosin (H&E).

[2] = tested on: isolated bronchial rings; test: MgSO4-induced relaxation of methacholine-stimulated bronchial rings from myriocin-treated mice; conditions: rings from mice given intranasal myriocin (20 μg), methacholine then MgSO4 (15 mM); FIG. 5C
Protocol: The effect of Mg^2+ supplementation on methacholine-induced contraction of bronchial rings was analyzed by adding MgSO4 (15 mM) to the myograph bath solution following stimulation with methacholine (10 μM).

CCCCCCC(=O)CCCCCC/C=C/C[C@@H](O)[C@H](O)[C@@](N)(CO)C(=O)O [myriocin]
expression of IL-6 in the lungs ([1]; myriocin (20 μg) vs controls, FIG. 4H): No increases | expression of IL-1β in the lungs ([1]; myriocin (20 μg) vs controls, FIG. 4I): No increases | TNF-α expression in the lungs ([1]; myriocin (20 μg) vs controls, FIG. 4J): less | number of neutrophils in the BAL ([1]; myriocin-treated (20 μg) animals, FIG. 4B): small increase | inflammatory changes in lung sections (H&E) ([1]; myriocin-treated (20 μg) mice): No inflammatory changes | magnesium-induced relaxation of bronchial rings [2]: impaired
